Data: ChEMBL document CHEMBL1770138, “Synthesis and SAR of pyrimidine-based, non-nucleotide P2Y14 receptor antagonists” (Bioorg Med Chem Lett, 2011)

Experiments:
[1] = in vivo; conditions: C57B6, mouse, iv, 5 mg/kg
[2] = in vivo; conditions: C57B6, mouse, po, 50 mg/kg
[3] = in vivo; conditions: C57B6, mouse
[4] = in vivo; conditions: C57B6, mouse, iv, 5 mg/kg; remark: listed apart in the source
[5] = Drug uptake in plasma of C57B6 mouse after 24 hrs; type: ADME; conditions: read-out: Drug uptake
[6] = in vivo; conditions: C57B6, mouse, po, 50 mg/kg; remark: listed apart in the source

Q: What does the source list for CCc1cccc(NC(=O)N2CCc3nc(-c4ccc5c(c4)OCO5)nc(-c4ccccc4C)c3C2)c1?
A: clearance [1]: 48 mL/min/kg; bioavailability [2]: 134%; half-life [3]: 11 h; Vd [4]: 19 L/kg; concentration at 24 h [5]: 400 nM; Cmax [6]: 2400 nM
